For this assay, the system named is MV-4-11 cells. Nature of the assay: Gene expression microarray analysis (Affymetrix PrimeView) and GSEA. The class given is cell-based, human. Also on record: RFU PODN (11730768_x_at) / Fold change /veh PODN (11730768_x_at) / RFU LINC00158 (11744669_a_at) / Fold change /veh LINC00158 (11744669_a_at) / RFU DUSP10 (11751237_a_at) / Fold change /veh DUSP10 (11751237_a_at) / RFU ID3 (11757404_x_at) / Fold change /veh ID3 (11757404_x_at) / RFU PLEKHG5 (11737974_s_at) / Fold change /veh PLEKHG5 (11737974_s_at) / RFU LRRC4B (11730491_at) / Fold change /veh LRRC4B (11730491_at) / RFU GIMAP4 (11747438_a_at) / Fold change /veh GIMAP4 (11747438_a_at) / RFU KRT8 (11758183_x_at) / Fold change /veh KRT8 (11758183_x_at) / RFU CNN1 (11734310_a_at) / Fold change /veh CNN1 (11734310_a_at) / RFU VPS37D (11726825_at) / Fold change /veh VPS37D (11726825_at) / RFU C10orf10 (11716522_x_at) / Fold change /veh C10orf10 (11716522_x_at) / RFU KIR2DL2 /// KIR2DL4 /// KIR2DL5A /// KIR2DL5B /// KIR2DS1 /// KIR2DS2 /// KIR2DS3 /// KIR2DS4 /// KIR3DL3 /// KIR3DL3 /// KIR3DS1 (11738374_at) / Fold change /veh KIR2DL2 /// KIR2DL4 /// KIR2DL5A /// KIR2DL5B /// KIR2DS1 /// KIR2DS2 /// KIR2DS3 /// KIR2DS4 /// KIR3DL3 /// KIR3DL3 /// KIR3DS1 (11738374_at) / RFU C1QL1 (11718748_at) / Fold change /veh C1QL1 (11718748_at) / RFU TMPRSS4 (11747572_a_at) / Fold change /veh TMPRSS4 (11747572_a_at) / RFU HAMP (11756126_x_at) / Fold change /veh HAMP (11756126_x_at) / RFU RNFT2 (11725882_a_at) / Fold change /veh RNFT2 (11725882_a_at) / RFU NR4A2 (11747474_a_at) / Fold change /veh NR4A2 (11747474_a_at) / RFU ABCC12 (11746883_a_at) / Fold change /veh ABCC12 (11746883_a_at) / RFU TMEM136 (11760407_x_at) / Fold change /veh TMEM136 (11760407_x_at) / RFU CLDN22 /// WWC2 (11732394_at) / Fold change /veh CLDN22 /// WWC2 (11732394_at) / RFU HLA-DPB1 (11760878_x_at) / Fold change /veh HLA-DPB1 (11760878_x_at) / RFU SPINT1 (11716480_a_at) / Fold change /veh SPINT1 (11716480_a_at) / RFU GAP43 (11754022_s_at) / Fold change /veh GAP43 (11754022_s_at) / RFU A4GNT (11735810_at) / Fold change /veh A4GNT (11735810_at) / RFU PRB3 (11715151_x_at) / Fold change /veh PRB3 (11715151_x_at) / RFU TUBB4B (11761932_at) / Fold change /veh TUBB4B (11761932_at) / RFU CAPN14 (11732068_a_at) / Fold change /veh CAPN14 (11732068_a_at) / RFU TMCC2 (11721928_a_at) / Fold change /veh TMCC2 (11721928_a_at) / RFU IRGQ (11745062_a_at) / Fold change /veh IRGQ (11745062_a_at) / RFU FAM174B (11720279_a_at) / Fold change /veh FAM174B (11720279_a_at) / RFU TMPRSS4 (11748680_a_at) / Fold change /veh TMPRSS4 (11748680_a_at) / RFU FAM212B (11763350_a_at) / Fold change /veh FAM212B (11763350_a_at) / RFU PLEKHG5 (11743358_a_at) / Fold change /veh PLEKHG5 (11743358_a_at) / RFU ZSCAN30 (11745921_a_at) / Fold change /veh ZSCAN30 (11745921_a_at) / RFU CMKLR1 (11741424_a_at) / Fold change /veh CMKLR1 (11741424_a_at) / RFU LOC101060620 /// MAPK8IP1 (11723275_at) / Fold change /veh LOC101060620 /// MAPK8IP1 (11723275_at) / RFU SPTSSB (11747773_x_at) / Fold change /veh SPTSSB (11747773_x_at) / RFU PRSS12 (11739890_at) / Fold change /veh PRSS12 (11739890_at) / RFU BIN1 (11741810_x_at) / Fold change /veh BIN1 (11741810_x_at) / RFU WNT11 (11732464_a_at) / Fold change /veh WNT11 (11732464_a_at) / RFU C10orf10 (11716521_a_at) / Fold change /veh C10orf10 (11716521_a_at) / RFU C5orf56 (11738089_at) / Fold change /veh C5orf56 (11738089_at) / RFU CYB561 (11721691_x_at) / Fold change /veh CYB561 (11721691_x_at) / RFU ANKRD19P (11752326_a_at) / Fold change /veh ANKRD19P (11752326_a_at) / RFU OR2T12 /// OR2T33 /// OR2T8 (11738714_s_at) / Fold change /veh OR2T12 /// OR2T33 /// OR2T8 (11738714_s_at) / RFU VCAN (11748164_a_at) / Fold change /veh VCAN (11748164_a_at) / RFU JSRP1 (11732532_at) / Fold change /veh JSRP1 (11732532_at) / RFU KRTAP10-11 (11738290_x_at) / Fold change /veh KRTAP10-11 (11738290_x_at) / RFU MYO3A (11730013_a_at) / Fold change /veh MYO3A (11730013_a_at) / RFU EBF3 (11725865_a_at) / Fold change /veh EBF3 (11725865_a_at) / RFU CAMK2N1 (11719241_x_at) / Fold change /veh CAMK2N1 (11719241_x_at) / RFU C5orf56 (11738088_a_at) / Fold change /veh C5orf56 (11738088_a_at) / RFU OLFML3 (11715873_a_at) / Fold change /veh OLFML3 (11715873_a_at) / RFU LOC100653217 /// NTM (11731650_a_at) / Fold change /veh LOC100653217 /// NTM (11731650_a_at) / RFU MAPK11 (11762145_a_at) / Fold change /veh MAPK11 (11762145_a_at) / RFU FIZ1 (11724087_x_at) / Fold change /veh FIZ1 (11724087_x_at) / RFU OASL (11726364_x_at) / Fold change /veh OASL (11726364_x_at) / RFU SOX15 (11748057_x_at) / Fold change /veh SOX15 (11748057_x_at) / RFU CD79A (11719716_a_at) / Fold change /veh CD79A (11719716_a_at) / RFU HIST1H1D (11736915_at) / Fold change /veh HIST1H1D (11736915_at) / RFU CASKIN2 (11723855_a_at) / Fold change /veh CASKIN2 (11723855_a_at) / RFU LOC730098 (11760151_x_at) / Fold change /veh LOC730098 (11760151_x_at) / RFU OR4N2 (11742367_at) / Fold change /veh OR4N2 (11742367_at) / RFU PRRT2 (11749266_a_at) / Fold change /veh PRRT2 (11749266_a_at) / RFU SNX32 (11753110_a_at) / Fold change /veh SNX32 (11753110_a_at) / RFU CDHR5 (11726645_a_at) / Fold change /veh CDHR5 (11726645_a_at) / RFU RCAN1 (11760418_a_at) / Fold change /veh RCAN1 (11760418_a_at) / RFU FAM167A (11723789_a_at) / Fold change /veh FAM167A (11723789_a_at) / RFU FAM26E (11764081_at) / Fold change /veh FAM26E (11764081_at) / RFU ISYNA1 (11749810_s_at) / Fold change /veh ISYNA1 (11749810_s_at) / RFU ACY1 (11761880_at) / Fold change /veh ACY1 (11761880_at) / RFU 11764098_at / Fold change /veh 11764098_at / RFU SAMD14 (11745864_x_at) / Fold change /veh SAMD14 (11745864_x_at) / RFU NPB (11741838_a_at) / Fold change /veh NPB (11741838_a_at) / RFU TMPRSS6 (11731388_a_at) / Fold change /veh TMPRSS6 (11731388_a_at) / RFU KRTAP10-2 (11738614_at) / Fold change /veh KRTAP10-2 (11738614_at) / RFU ARHGAP8 /// PRR5-ARHGAP8 (11727945_x_at) / Fold change /veh ARHGAP8 /// PRR5-ARHGAP8 (11727945_x_at) / RFU KRTAP5-7 /// NADSYN1 (11734609_at) / Fold change /veh KRTAP5-7 /// NADSYN1 (11734609_at) / RFU RASL12 (11751679_a_at) / Fold change /veh RASL12 (11751679_a_at) / RFU CDKN2B (11736163_a_at) / Fold change /veh CDKN2B (11736163_a_at) / RFU PRF1 (11729649_at) / Fold change /veh PRF1 (11729649_at) / RFU, ZNF638 /// ZNF638-IT1 / Fold change vs veh, ZNF638 /// ZNF638-IT1 / RFU, PANK3 / Fold change vs veh, PANK3 / RFU, SH3YL1 / Fold change vs veh, SH3YL1 / RFU, ZEB2 / Fold change vs veh, ZEB2 / RFU, NRIP1 / Fold change vs veh, NRIP1 / RFU, PTTG1IP / Fold change vs veh, PTTG1IP / RFU, CAPN2 / Fold change vs veh, CAPN2 / RFU, MED14 / Fold change vs veh, MED14 / RFU, SNORA58 / Fold change vs veh, SNORA58 / RFU, C1orf63 / Fold change vs veh, C1orf63 / RFU, LRRFIP1 / Fold change vs veh, LRRFIP1 / RFU, NDUFAF7 / Fold change vs veh, NDUFAF7 / RFU, SLC12A2 / Fold change vs veh, SLC12A2 / RFU, IBTK / Fold change vs veh, IBTK / RFU, ESF1 / Fold change vs veh, ESF1 / Fold change vs veh, TMEM50B / RFU, TAOK1 / Fold change vs veh, TAOK1 / RFU, ACBD3 / Fold change vs veh, ACBD3 / RFU, TMA16 / Fold change vs veh, TMA16 / RFU, RWDD3 / Fold change vs veh, RWDD3 / RFU, BCAT1 / Fold change vs veh, BCAT1 / RFU, EDEM3 / Fold change vs veh, EDEM3 / RFU, TMEM33 / Fold change vs veh, TMEM33 / RFU, WDR75 / Fold change vs veh, WDR75 / RFU, AHCTF1 / Fold change vs veh, AHCTF1 / RFU, TFRC / Fold change vs veh, TFRC / RFU, ZDHHC17 / Fold change vs veh, ZDHHC17 / RFU, NOM1 / Fold change vs veh, NOM1 / RFU, ARL8B / Fold change vs veh, ARL8B / RFU, ZBTB11 / Fold change vs veh, ZBTB11 / RFU, TAMM41 / Fold change vs veh, TAMM41 / RFU, KIAA1704 /// LOC100996395 / Fold change vs veh, KIAA1704 /// LOC100996395 / RFU, ING1 / Fold change vs veh, ING1 / RFU, TRMT61B / Fold change vs veh, TRMT61B / RFU, FUBP3 / Fold change vs veh, FUBP3 / RFU, TP53 / Fold change vs veh, TP53 / RFU, TNKS2 / Fold change vs veh, TNKS2 / RFU, ZFP14 / Fold change vs veh, ZFP14 / RFU, ACTR2 / Fold change vs veh, ACTR2 / RFU, PPP3R1 / Fold change vs veh, PPP3R1 / RFU, PIK3R1 / Fold change vs veh, PIK3R1 / RFU, HNRNPA1 / Fold change vs veh, HNRNPA1 / RFU, RNF170 / Fold change vs veh, RNF170 / RFU, ZNF28 / Fold change vs veh, ZNF28 / RFU, RNGTT / Fold change vs veh, RNGTT / RFU, OGT / Fold change vs veh, OGT / RFU, BRD1 / Fold change vs veh, BRD1 / RFU, MARS / Fold change vs veh, MARS / RFU, ZNF655 / Fold change vs veh, ZNF655 / RFU, FAHD1 / Fold change vs veh, FAHD1 / RFU, BDP1 / Fold change vs veh, BDP1 / RFU, LRRCC1 / Fold change vs veh, LRRCC1 / RFU, ARID1A / Fold change vs veh, ARID1A / RFU, ZNF146 / Fold change vs veh, ZNF146 / RFU, ZNF330 / Fold change vs veh, ZNF330 / RFU, GPN3 / Fold change vs veh, GPN3 / RFU, C9orf123 / Fold change vs veh, C9orf123 / RFU, N4BP2L2 / Fold change vs veh, N4BP2L2 / RFU, ARFIP1 / Fold change vs veh, ARFIP1 / RFU, FAM179B / Fold change vs veh, FAM179B / RFU, BCL10 / Fold change vs veh, BCL10 / RFU, UHRF1BP1L / Fold change vs veh, UHRF1BP1L / RFU, BET1 / Fold change vs veh, BET1 / RFU, CNOT2 / Fold change vs veh, CNOT2 / RFU, ZNF268 / Fold change vs veh, ZNF268 / Fold change vs veh, ZNF507 / RFU, DGCR2 / Fold change vs veh, DGCR2 / RFU, WDSUB1 / Fold change vs veh, WDSUB1 / Fold change vs veh, HSP90B1 /// MIR3652 / RFU, ADSS / Fold change vs veh, ADSS / RFU, GK / Fold change vs veh, GK / RFU, ZNF148 / Fold change vs veh, ZNF148 / RFU, TAF9 / Fold change vs veh, TAF9 / RFU, SLC1A5 / Fold change vs veh, SLC1A5 / RFU, SLMO2 / Fold change vs veh, SLMO2 / RFU, ABCC4 / Fold change vs veh, ABCC4 / RFU, LOC101060439 /// RAP1B / Fold change vs veh, LOC101060439 /// RAP1B / RFU, RFX7 / Fold change vs veh, RFX7 / RFU, GTPBP10 / Fold change vs veh, GTPBP10 / RFU, CNEP1R1 / Fold change vs veh, CNEP1R1 / RFU, BIVM-ERCC5 /// ERCC5 / Fold change vs veh, BIVM-ERCC5 /// ERCC5 / RFU, ILF3 / Fold change vs veh, ILF3 / RFU 11762660_at / Fold change /veh 11762660_at / RFU VCAN (11757783_s_at) / Fold change /veh VCAN (11757783_s_at) / RFU DDX43 (11728927_at) / Fold change /veh DDX43 (11728927_at) / RFU KRT8 (11758188_x_at) / Fold change /veh KRT8 (11758188_x_at) / RFU NKD1 (11759106_at) / Fold change /veh NKD1 (11759106_at) / RFU SRD5A1 (11742802_a_at) / Fold change /veh SRD5A1 (11742802_a_at) / RFU TPSAB1 /// TPSB2 (11721975_s_at) / Fold change /veh TPSAB1 /// TPSB2 (11721975_s_at) / RFU GSTM3 (11746129_a_at) / Fold change /veh GSTM3 (11746129_a_at) / RFU IL23R (11737362_x_at) / Fold change /veh IL23R (11737362_x_at) / RFU TMEM51 (11727254_a_at) / Fold change /veh TMEM51 (11727254_a_at) / RFU PIWIL2 (11732686_x_at) / Fold change /veh PIWIL2 (11732686_x_at) / RFU ORM1 (11744905_x_at) / Fold change /veh ORM1 (11744905_x_at) / RFU CCDC152 (11743942_at) / Fold change /veh CCDC152 (11743942_at) / RFU ECM1 (11717891_a_at) / Fold change /veh ECM1 (11717891_a_at) / RFU IL23R (11748794_a_at) / Fold change /veh IL23R (11748794_a_at) / RFU TNFAIP8L3 (11732012_x_at) / Fold change /veh TNFAIP8L3 (11732012_x_at) / RFU MBOAT4 (11741988_at) / Fold change /veh MBOAT4 (11741988_at) / RFU 11764193_at / Fold change /veh 11764193_at / RFU TMEM53 (11763286_at) / Fold change /veh TMEM53 (11763286_at) / RFU MAGEB2 (11727129_at) / Fold change /veh MAGEB2 (11727129_at) / RFU TMEM200A (11744735_a_at) / Fold change /veh TMEM200A (11744735_a_at) / RFU CCDC152 (11751479_a_at) / Fold change /veh CCDC152 (11751479_a_at) / RFU FAM211A (11726209_a_at) / Fold change /veh FAM211A (11726209_a_at) / RFU RGS16 (11746705_a_at) / Fold change /veh RGS16 (11746705_a_at) / RFU VCAN (11755009_s_at) / Fold change /veh VCAN (11755009_s_at) / RFU RHOB (11743442_s_at) / Fold change /veh RHOB (11743442_s_at) / RFU RGS16 (11720943_a_at) / Fold change /veh RGS16 (11720943_a_at) / RFU RGS16 (11720944_at) / Fold change /veh RGS16 (11720944_at) / RFU, VPS4B / Fold change vs veh, VPS4B / RFU, CREB1 / Fold change vs veh, CREB1 / RFU, DNAJC13 / Fold change vs veh, DNAJC13 / RFU, GNAQ / Fold change vs veh, GNAQ / RFU, CDK5R1 / Fold change vs veh, CDK5R1 / RFU, ZRANB3 / Fold change vs veh, ZRANB3 / RFU, CUL4A / Fold change vs veh, CUL4A / RFU, CCNY / Fold change vs veh, CCNY / RFU, UFL1 / Fold change vs veh, UFL1 / RFU, COG3 / Fold change vs veh, COG3 / RFU, DIAPH2 / Fold change vs veh, DIAPH2 / RFU, SKA2 / Fold change vs veh, SKA2 / RFU, AFF3 / Fold change vs veh, AFF3 / RFU, LMF1 / Fold change vs veh, LMF1 / RFU, IPO11 / Fold change vs veh, IPO11 / RFU, DFFB / Fold change vs veh, DFFB / RFU, FOXP1 / Fold change vs veh, FOXP1 / RFU, CARD8 / Fold change vs veh, CARD8 / RFU, STRN3 / Fold change vs veh, STRN3 / RFU, ADK / Fold change vs veh, ADK / RFU, RASSF2 / Fold change vs veh, RASSF2 / RFU, WIPF1 / Fold change vs veh, WIPF1 / RFU, LARP1B / Fold change vs veh, LARP1B / RFU, RASA1 / Fold change vs veh, RASA1 / RFU, RB1 / Fold change vs veh, RB1 / RFU, PPFIA1 / Fold change vs veh, PPFIA1 / RFU, MAT2A / Fold change vs veh, MAT2A / RFU, CCT5 / Fold change vs veh, CCT5 / RFU, WDR92 / Fold change vs veh, WDR92 / RFU, CUX1 / Fold change vs veh, CUX1 / RFU, TTC7A / Fold change vs veh, TTC7A / RFU, TMEM135 / Fold change vs veh, TMEM135 / RFU, DEPTOR / Fold change vs veh, DEPTOR / RFU, CPM / Fold change vs veh, CPM / RFU, DNAJB6 / Fold change vs veh, DNAJB6 / RFU, CACNA2D3 / Fold change vs veh, CACNA2D3 / RFU, DTX4 / Fold change vs veh, DTX4 / RFU, TFCP2 / Fold change vs veh, TFCP2 / RFU, GMCL1 /// GMCL1P1 / Fold change vs veh, GMCL1 /// GMCL1P1 / RFU, AEBP2 / Fold change vs veh, AEBP2 / RFU, SNHG1 /// SNORD22 /// SNORD25 /// SNORD26 /// SNORD27 /// SNORD28 /// SNORD29 /// SNORD31 / Fold change vs veh, SNHG1 /// SNORD22 /// SNORD25 /// SNORD26 /// SNORD27 /// SNORD28 /// SNORD29 /// SNORD31 / Fold change (Aza/veh), C12orf56 (ProbeSet 11735607_a_at) / Fold change (ACY-1035/veh), C12orf56 (ProbeSet 11735607_a_at) / Fold change (Aza/veh), FGFR1OP (ProbeSet 11751329_s_at) / Fold change (ACY-1035/veh), FGFR1OP (ProbeSet 11751329_s_at) / Fold change (Aza/veh), VPS36 (ProbeSet 11739960_a_at) / Fold change (ACY-1035/veh), VPS36 (ProbeSet 11739960_a_at) / RFU SYPL1 (11715823_x_at) / Fold change /veh SYPL1 (11715823_x_at) / RFU IGFBP7 (11715501_s_at) / Fold change /veh IGFBP7 (11715501_s_at) / RFU REEP3 (11722064_at) / Fold change /veh REEP3 (11722064_at) / RFU IGLL1 (11728026_x_at) / Fold change /veh IGLL1 (11728026_x_at): dose or concentration left out as unconfirmed. The note with it: ProbeSet 11758170_s_at; LIST D.

Regarding `Nc1ccc(-c2cccs2)cc1NC(=O)c1ccc2c(c1)cc(C1CC1)n2CCN1CCOCC1` [ACY-1035], the “RFU, DIAPH2” value stood at 32.47 RFU.

Source of the values: article PMC5218480 (PLoS ONE, 2017).
